Assay results reported in patent US9328099B2, “Cyanomethylpyrazole carboxamides as janus kinase inhibitors” (Merck Sharp & Dohme Corp., priority 2011, dated 2016).

Tests used:
JAK1 = JAK1 (Homo sapiens (Human), UniProt P23458); assay: Jak Biochemical HTRF Assay, JAK1; conditions: HTRF biochemical assay, GST-tagged catalytic domain; top concentration tested […]; read-out: JAK1 IC50
Source text: (§1) Jak Biochemical HTRF Assay Protocol
(§2) Subsequent reagent additions employed an Agilent Bravo.

JAK2 = JAK2 (Homo sapiens (Human), UniProt O60674); assay: Jak Biochemical HTRF Assay, JAK2; conditions: HTRF biochemical assay, GST-tagged catalytic domain; top concentration tested […]
Source text: as §1, §2

Sequence of JAK2 (O60674 849-1124): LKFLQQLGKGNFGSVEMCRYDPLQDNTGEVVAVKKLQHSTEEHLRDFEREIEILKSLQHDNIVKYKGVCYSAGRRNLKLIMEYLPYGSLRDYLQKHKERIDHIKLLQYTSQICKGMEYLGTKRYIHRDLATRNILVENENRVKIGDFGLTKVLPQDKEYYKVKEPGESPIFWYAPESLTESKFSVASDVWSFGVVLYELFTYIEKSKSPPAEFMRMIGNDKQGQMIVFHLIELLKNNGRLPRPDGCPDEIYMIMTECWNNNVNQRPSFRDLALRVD
Sequence of JAK1 (P23458 875-1153): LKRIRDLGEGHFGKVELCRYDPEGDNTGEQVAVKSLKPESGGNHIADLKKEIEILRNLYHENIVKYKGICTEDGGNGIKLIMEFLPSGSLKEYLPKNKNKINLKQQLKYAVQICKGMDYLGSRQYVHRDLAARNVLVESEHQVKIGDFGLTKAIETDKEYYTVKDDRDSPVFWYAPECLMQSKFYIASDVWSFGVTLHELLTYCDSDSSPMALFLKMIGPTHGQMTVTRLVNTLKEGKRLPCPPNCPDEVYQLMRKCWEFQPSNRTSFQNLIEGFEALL

Row | Compound | IC50 (JAK1) [nM] | IC50 (JAK2) [nM]
1 | N#CCC1(n2cc(C(N)=O)c(Nc3ccc(F)cc3)n2)CCN(c2cncc(C(F)(F)F)c2)CC1 [Example 3-8, 1-{4-(cyanomethyl)-1-[5-(trifluoromethyl)pyridin-3-yl]piperidin-4-yl}-3-[(4-fluorophenyl)amino]-1H-pyrazole-4-carboxamide] | 1 | 54
2 | N#CCC1(n2cc(C(N)=O)c(Nc3ccc(F)cc3)n2)CCN(c2ccc(C(O)C(F)(F)F)cc2)CC1 (stereo not drawn) [Example 3-9, 1-{4-(cyanomethyl)-1-[4-(2,2,2-trifluoro-1-hydroxyethyl)phenyl]piperidin-4-yl}-3-[(4-fluorophenyl)amino]-1H-pyrazole-4-carboxamide] | 1 | 37
3 | N#CCC1(n2cc(C(N)=O)c(Nc3ccc(F)cc3)n2)CCN(c2cccc(OCCO)n2)CC1 [Example 3-10, 1-{4-(cyanomethyl)-1-[6-(2-hydroxyethoxy)pyridin-2-yl]piperidin-4-yl}-3-[(4-fluorophenyl)amino]-1H-pyrazole-4-carboxamide] | 3 | 47
4 | COc1cc(N2CCC(CC#N)(n3cc(C(N)=O)c(Nc4ccc(F)cc4)n3)CC2)ccc1F [Example 3-11, 1-[4-(cyanomethyl)-1-(4-fluoro-3-methoxyphenyl)piperidin-4-yl]-3-[(4-fluorophenyl)amino]-1H-pyrazole-4-carboxamide] | 4 | 74
5 | COc1cc(F)cc(N2CCC(CC#N)(n3cc(C(N)=O)c(Nc4ccc(F)cc4)n3)CC2)c1 [Example 3-12, 1-[4-(cyanomethyl)-1-(3-fluoro-5-methoxyphenyl)piperidin-4-yl]-3-[(4-fluorophenyl)amino]-1H-pyrazole-4-carboxamide] | 2 | 40
6 | N#CCC1(n2cc(C(N)=O)c(Nc3ccc(F)cc3)n2)CCN(c2ccc(OC(F)F)nc2)CC1 [Example 3-13, 1-{4-(cyanomethyl)-1-[6-(difluoromethoxy)pyridin-3-yl]piperidin-4-yl}-3-[(4-fluorophenyl)amino]-1H-pyrazole-4-carboxamide] | 0.7 | 21
7 | Cc1cc(N2CCC(CC#N)(n3cc(C(N)=O)c(Nc4ccc(F)cc4)n3)CC2)cnc1C [Example 3-14, 1-[4-(cyanomethyl)-1-(5,6-dimethylpyridin-3-yl)piperidin-4-yl]-3-[(4-fluorophenyl)amino]-1H-pyrazole-4-carboxamide] | 2 | 49
8 | CC(C)Oc1cccc(N2CCC(CC#N)(n3cc(C(N)=O)c(Nc4ccc(F)cc4)n3)CC2)n1 [Example 3-15, 1-{4-(cyanomethyl)-1-[6-(1-methylethoxy)pyridin-2-yl]piperidin-4-yl}-3-[(4-fluorophenyl)amino]-1H-pyrazole-4-carboxamide] | 191 | > 1500
9 | CCOc1cccc(N2CCC(CC#N)(n3cc(C(N)=O)c(Nc4ccc(F)cc4)n3)CC2)n1 [Example 3-16, 1-[4-(cyanomethyl)-1-(6-ethoxypyridin-2-yl)piperidin-4-yl]-3-[(4-fluorophenyl)amino]-1H-pyrazole-4-carboxamide] | 45 | 861
10 | N#CCC1(n2cc(C(N)=O)c(Nc3ccc(F)cc3)n2)CCN(c2cccc(C3CC3)c2)CC1 [Example 3-17, 1-[4-(cyanomethyl)-1-(3-cyclopropylphenyl)piperidin-4-yl]-3-[(4-fluorophenyl)amino]-1H-pyrazole-4-carboxamide] | 32 | 780
11 | N#CCC1(n2cc(C(N)=O)c(Nc3ccc(F)cc3)n2)CCN(c2cccc(C#N)n2)CC1 [Example 3-18, 1-[4-(cyanomethyl)-1-(6-cyanopyridin-2-yl)piperidin-4-yl]-3-[(4-fluorophenyl)amino]-1H-pyrazole-4-carboxamide] | 3 | 89
12 | N#CCC1(n2cc(C(N)=O)c(Nc3ccc(F)cc3)n2)CCN(c2ccc(OC(F)F)cn2)CC1 [Example 3-19, 1-{4-(cyanomethyl)-1-[5-(difluoromethoxy)pyridin-2-yl]piperidin-4-yl}-3-[(4-fluorophenyl)amino]-1H-pyrazole-4-carboxamide] | 0.6 | 18
13 | N#CCC1(n2cc(C(N)=O)c(Nc3ccc(F)cc3)n2)CCN(c2cncc(C#N)c2)CC1 [Example 3-21, 1-[4-(cyanomethyl)-1-(5-cyanopyridin-3-yl)piperidin-4-yl]-3-[(4-fluorophenyl)amino]-1H-pyrazole-4-carboxamide] | 0.6 | 20
14 | COc1cccnc1N1CCC(CC#N)(n2cc(C(N)=O)c(Nc3ccc(F)cc3)n2)CC1 [Example 3-23, 1-[4-(cyanomethyl)-1-(3-methoxypyridin-2-yl)piperidin-4-yl]-3-[(4-fluorophenyl)amino]-1H-pyrazole-4-carboxamide] | 33 | 559
15 | COc1ncc(N2CCC(CC#N)(n3cc(C(N)=O)c(Nc4ccc(F)cc4)n3)CC2)cn1 [Example 3-25, 1-[4-(cyanomethyl)-1-(2-methoxypyrimidin-5-yl)piperidin-4-yl]-3-[(4-fluorophenyl)amino]-1H-pyrazole-4-carboxamide] | 0.7 | 21
16 | N#CCC1(n2cc(C(N)=O)c(Nc3ccc(F)cc3)n2)CCN(c2ccc(C#N)cc2)CC1 [Example 3-26, 1-[4-(cyanomethyl)-1-(4-cyanophenyl)piperidin-4-yl]-3-[(4-fluorophenyl)amino]-1H-pyrazole-4-carboxamide] | 0.2 | 3
17 | N#CCC1(n2cc(C(N)=O)c(Nc3ccc(F)cc3)n2)CCN(c2ccc(C(F)(F)F)nc2)CC1 [Example 3-28, 1-{4-(cyanomethyl)-1-[6-(trifluoromethyl)pyridin-3-yl]piperidin-4-yl}-3-[(4-fluorophenyl)amino]-1H-pyrazole-4-carboxamide] | 0.6 | 26
18 | Cc1ncccc1N1CCC(CC#N)(n2cc(C(N)=O)c(Nc3ccc(F)cc3)n2)CC1 [Example 3-29, 1-[4-(cyanomethyl)-1-(2-methylpyridin-3-yl)piperidin-4-yl]-3-[(4-fluorophenyl)amino]-1H-pyrazole-4-carboxamide] | 9 | 209
19 | N#CCC1(n2cc(C(N)=O)c(Nc3ccc(F)cc3)n2)CCN(c2cccnc2)CC1 [Example 3-30, 1-[4-(cyanomethyl)-1-pyridin-3-ylpiperidin-4-yl]-3-[(4-fluorophenyl)amino]-1H-pyrazole-4-carboxamide] | 0.3 | 6
20 | Cc1ccnc(N2CCC(CC#N)(n3cc(C(N)=O)c(Nc4ccc(F)cc4)n3)CC2)c1 [Example 3-31, 1-[4-(cyanomethyl)-1-(4-methylpyridin-2-yl)piperidin-4-yl]-3-[(4-fluorophenyl)amino]-1H-pyrazole-4-carboxamide] | 1 | 44
21 | Cc1ccc(F)cc1N1CCC(CC#N)(n2cc(C(N)=O)c(Nc3ccc(F)cc3)n2)CC1 [Example 3-32, 1-[4-(cyanomethyl)-1-(5-fluoro-2-methylphenyl)piperidin-4-yl]-3-[(4-fluorophenyl)amino]-1H-pyrazole-4-carboxamide] | 204 | > 1500
22 | Cc1ccncc1N1CCC(CC#N)(n2cc(C(N)=O)c(Nc3ccc(F)cc3)n2)CC1 [Example 3-33, 1-[4-(cyanomethyl)-1-(4-methylpyridin-3-yl)piperidin-4-yl]-3-[(4-fluorophenyl)amino]-1H-pyrazole-4-carboxamide] | 7 | 102
23 | Cc1ccc(N2CCC(CC#N)(n3cc(C(N)=O)c(Nc4ccc(F)cc4)n3)CC2)cc1F [Example 3-34, 1-[4-(cyanomethyl)-1-(3-fluoro-4-methylphenyl)piperidin-4-yl]-3-[(4-fluorophenyl)amino]-1H-pyrazole-4-carboxamide] | 5 | 215
24 | COC(=O)c1cccc(N2CCC(CC#N)(n3cc(C(N)=O)c(Nc4ccc(F)cc4)n3)CC2)n1 [Example 3-35, methyl 6-[4-{4-carbamoyl-3-[(4-fluorophenyl)amino]-1H-pyrazol-1-yl}-4-(cyanomethyl)piperidin-1-yl]pyridine-2-carboxylate] | 19 | 280
25 | CCOc1ccc(N2CCC(CC#N)(n3cc(C(N)=O)c(Nc4ccc(F)cc4)n3)CC2)cn1 [Example 3-36, 1-[4-(cyanomethyl)-1-(6-ethoxypyridin-3-yl)piperidin-4-yl]-3-[(4-fluorophenyl)amino]-1H-pyrazole-4-carboxamide] | 3 | 46
26 | COc1cncc(N2CCC(CC#N)(n3cc(C(N)=O)c(Nc4ccc(F)cc4)n3)CC2)c1 [Example 3-37, 1-[4-(cyanomethyl)-1-(5-methoxypyridin-3-yl)piperidin-4-yl]-3-[(4-fluorophenyl)amino]-1H-pyrazole-4-carboxamide] | 0.6 | 17
27 | N#CCC1(n2cc(C(N)=O)c(Nc3ccc(F)cc3)n2)CCN(c2ccc(F)cc2)CC1 [Example 3-38, 1-[4-(cyanomethyl)-1-(4-fluorophenyl)piperidin-4-yl]-3-[(4-fluorophenyl)amino]-1H-pyrazole-4-carboxamide] | 2 | 37
28 | Cc1ccc(N2CCC(CC#N)(n3cc(C(N)=O)c(Nc4ccc(F)cc4)n3)CC2)cc1 [Example 3-39, 1-[4-(cyanomethyl)-1-(4-methylphenyl)piperidin-4-yl]-3-[(4-fluorophenyl)amino]-1H-pyrazole-4-carboxamide] | 4 | 117
29 | N#CCC1(n2cc(C(N)=O)c(Nc3ccc(F)cc3)n2)CCN(c2cc(F)cc(F)c2)CC1 [Example 3-40, 1-[4-(cyanomethyl)-1-(3,5-difluorophenyl)piperidin-4-yl]-3-[(4-fluorophenyl)amino]-1H-pyrazole-4-carboxamide] | 3 | 67
30 | COc1ccccc1N1CCC(CC#N)(n2cc(C(N)=O)c(Nc3ccc(F)cc3)n2)CC1 [Example 3-41, 1-[4-(cyanomethyl)-1-(2-methoxyphenyl)piperidin-4-yl]-3-[(4-fluorophenyl)amino]-1H-pyrazole-4-carboxamide] | 213 | > 1500
